The results in this text go back to ChEMBL document CHEMBL2303647, “Data associated with the publication PLoS ONE, 8(3), e57888, (2013) PMID: 23505445. Compounds: GSK PKIS; Assays: NIH NCATS”.

The target in test [1] is Luciferin 4-monooxygenase (Photinus pyralis, UniProt P08659).
Description: GSK_PKIS: Inhibition of Firefly Luciferase (Data from PubChem: AID 652016) [NIH NCATS]
Test [2] concerns the target T1, Coelenterazine h 2-monooxygenase (Renilla reniformis, UniProt P27652).
T1 sequence (P27652 whole entry): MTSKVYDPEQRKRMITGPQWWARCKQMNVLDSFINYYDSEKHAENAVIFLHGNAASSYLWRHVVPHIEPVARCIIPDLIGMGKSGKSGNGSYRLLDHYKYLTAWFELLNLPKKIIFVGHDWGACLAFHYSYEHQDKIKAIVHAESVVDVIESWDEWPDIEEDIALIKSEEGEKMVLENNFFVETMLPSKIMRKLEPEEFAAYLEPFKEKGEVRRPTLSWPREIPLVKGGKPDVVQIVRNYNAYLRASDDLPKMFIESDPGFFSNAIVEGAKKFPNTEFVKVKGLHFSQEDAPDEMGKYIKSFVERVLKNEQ
Description: GSK_PKIS: Inhibition of Sea Pansy Luciferase (Data from PubChem: AID 652015) [NIH NCATS]

In general, AC50 refers to the midpoint of the concentration-response curve, whichever way the signal moves.

Chain of Luciferin 4-monooxygenase (P08659 whole entry): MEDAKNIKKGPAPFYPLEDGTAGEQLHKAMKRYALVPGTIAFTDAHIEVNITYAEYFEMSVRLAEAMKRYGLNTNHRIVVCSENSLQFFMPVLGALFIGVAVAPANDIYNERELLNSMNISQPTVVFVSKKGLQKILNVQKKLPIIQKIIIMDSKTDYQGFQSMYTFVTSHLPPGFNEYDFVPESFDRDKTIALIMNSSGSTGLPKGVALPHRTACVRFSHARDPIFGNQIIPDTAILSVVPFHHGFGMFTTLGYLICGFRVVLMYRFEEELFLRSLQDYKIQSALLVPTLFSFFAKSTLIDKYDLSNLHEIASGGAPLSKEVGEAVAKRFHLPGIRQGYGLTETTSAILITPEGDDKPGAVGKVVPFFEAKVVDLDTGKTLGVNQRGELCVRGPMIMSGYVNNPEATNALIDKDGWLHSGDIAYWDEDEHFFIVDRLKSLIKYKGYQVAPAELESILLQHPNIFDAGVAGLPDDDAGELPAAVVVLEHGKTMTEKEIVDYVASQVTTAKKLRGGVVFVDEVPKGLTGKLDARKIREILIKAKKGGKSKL

As for `CS(=O)(=O)CCNCc1cc(-c2cc3c(Nc4ccc(OCc5cccc(F)c5)c(Cl)c4)ncnc3s2)cs1` [GSK-300014A], the figures for the AC50 result in test [1] and in test [2] were “Phenotype: Inactive; Curve_Description: None” and “Phenotype: Activator; Curve_Description: None”, respectively.
Take `COc1cc2ncn(-c3cc(OCc4cccs4)c(C(N)=O)s3)c2cc1OC` [GSK-312948A]: the AC50 result in test [1] was “Phenotype: Inactive; Curve_Description: None”; in test [2] (read-out: AC50), 9.19 µM.
On to `COc1ccc2ncn(-c3cc(O[C@H](C)c4ccccc4Cl)c(C(N)=O)s3)c2c1` [GSK-317314A], for which the concentration at half-maximal activity (AC50) result in test [1] and in test [2] was “Phenotype: Inactive; Curve_Description: None” in each case.
Turning to `COc1ccc2ncn(-c3cc(O[C@H](C)c4ccccc4C(F)(F)F)c(C(N)=O)s3)c2c1` [GSK-317315A], the AC50 entry is “Phenotype: Inactive; Curve_Description: None” in test [1] and 20.6 µM in test [2] (read-out: AC50).
Consider `CC1=C(C(=O)Nc2ccc3[nH]ncc3c2)C(c2ccc(F)cc2)N=C(c2ccc(C(F)(F)F)nc2)N1` (configuration not stated) [GSK-317354A], for which the values for the half-maximal activity concentration (AC50) in test [1] (read-out: AC50) and in test [2] were 41.1 µM and “Phenotype: Activator; Curve_Description: None”, respectively.
Take `COc1cc2ncn(-c3cc(OCc4ccccc4S(C)(=O)=O)c(C#N)s3)c2cc1OC` [GSK-319347A]: the concentration at half-maximal activity (AC50) result in test [1] and in test [2] was “Phenotype: Inactive; Curve_Description: None” each time.
`C[C@@H](Oc1cc(-n2cnc3ccc(OCC4CCN(C)CC4)cc32)sc1C(N)=O)c1ccccc1C(F)(F)F` [GSK-326090A]: the results for the AC50 entry in test [1] and in test [2] (read-out: AC50) were “Phenotype: Inactive; Curve_Description: None” and 25.9 µM, respectively.
For `CC1=C(C(=O)Nc2ccc3[nH]nc(C)c3c2)C(c2ccc(C(F)(F)F)cc2)CC(=O)N1` (configuration not stated) [GSK-466314A], the AC50 result in test [1] and in test [2] was “Phenotype: Inactive; Curve_Description: None” each time.
As to `CC1=C(C(=O)Nc2cc(Cl)c3[nH]ncc3c2)C(c2ccc(C(F)(F)F)cc2)CC(=O)N1` (configuration not stated) [GSK-466317A], the half-maximal activity concentration (AC50) entry in test [1] and in test [2] was “Phenotype: Inactive; Curve_Description: None” throughout.
In the case of `CCn1c(-c2nonc2N)nc2c(C#CC(C)(C)O)ncc(OCC3CCNCC3)c21.O=C(O)C(F)(F)F` [GSK-554170A], the AC50 entry in test [1] and in test [2] was “Phenotype: Inactive; Curve_Description: None” in each case.
For `CCn1c(-c2nonc2N)nc2c(C#CCN)ncc(OCCCN)c21.O=C(O)C(F)(F)F` [GSK-561866B], the AC50 result in test [1] was “Phenotype: Inactive; Curve_Description: None”; in test [2] (read-out: AC50), 23.1 µM.
For `C[C@@H](Oc1cc(-n2cnc3ccc(OCC4CCN(C)CC4)cc32)sc1C(N)=O)c1ccccc1Cl` [GSK-571989A], in that order: “Phenotype: Inactive; Curve_Description: None” and 20.6 µM.
Regarding `C[C@@H](Oc1cc(-n2cnc3ccc(OC4CCN(C)CC4)cc32)sc1C(N)=O)c1ccccc1Cl` [GSK-579289A], the AC50 result in test [1] is “Phenotype: Inactive; Curve_Description: None”; in test [2] (read-out: AC50) it was 20.6 µM.
On to `CS(=O)(=O)Nc1ccc(-c2cc(-c3ccccc3)cc(C(N)=O)c2N)cc1` [GSK-586581A], for which the half-maximal activity concentration (AC50) entry in test [1] and in test [2] was “Phenotype: Inactive; Curve_Description: None” throughout.
As to `COc1ccc(-c2ccncc2)cc1C(N)=O` [GSK-605714A], the AC50 entry in test [1] and in test [2] was “Phenotype: Inactive; Curve_Description: None” each time.
On to `CCn1c(-c2nonc2N)nc2c(C#CC(C)(C)O)ncc(OC[C@@H]3CCCN3)c21.O=C(O)C(F)(F)F` [GSK-614526A], for which the AC50 result was “Phenotype: Inactive; Curve_Description: None” in test [1] and 18.3 µM in test [2] (read-out: AC50).
As to `CCn1c(-c2nonc2N)nc2c(C#CC(C)(C)O)ncc(OC3CCNCC3)c21.O=C(O)C(F)(F)F` [GSK-619487A], the AC50 entry in test [1] and in test [2] was “Phenotype: Inactive; Curve_Description: None” in each case.
In the case of `NC(=O)c1cc(-c2ccc(F)cc2)cc(-c2ccncc2)c1N` [GSK-620503A], the AC50 entry in test [1] and in test [2] was “Phenotype: Inactive; Curve_Description: None” in each case.
Turning to `NC(=O)c1cc(-c2ccncc2)cc(-c2ccccc2)c1N` [GSK-625137A], the results for the half-maximal activity concentration (AC50) in test [1] (read-out: AC50) and in test [2] were 41.1 µM and “Phenotype: Inactive; Curve_Description: None”, respectively.
Turning to `CNC(=O)c1cc(-c2ccc(F)cc2)cc(-c2ccc(S(=O)(=O)N3CCCC3)cc2)c1N` [GSK-635416A], the AC50 result in test [1] is given as “Phenotype: Inactive; Curve_Description: None”; in test [2], “Phenotype: Activator; Curve_Description: None”.
Turning to `COc1c(C(N)=O)cc(-c2ccc(Cl)cc2)cc1-c1ccc(S(N)(=O)=O)cc1` [GSK-711701A], the AC50 in test [1] (read-out: AC50) is 29.1 µM; in test [2], “Phenotype: Inactive; Curve_Description: None”.
On to `CCn1cc(-c2ccnc3[nH]ccc23)c(-c2cccc(NC(=O)Nc3ccc(OCc4ccccc4)cc3)c2)n1` [GSK-718429A], for which the AC50 entry in test [1] and in test [2] was “Phenotype: Inactive; Curve_Description: None” in each case.
On to `CCn1c(-c2nonc2N)nc2c(C#CC(C)(C)O)nc(OC[C@@H](N)c3ccccc3)cc21` [GSK-938890A], for which the AC50 result was “Phenotype: Inactive; Curve_Description: None” in test [1] and 29.1 µM in test [2] (read-out: AC50).
On to `CCn1c(-c2nonc2N)nc2c(C#CC(C)(C)O)nc(OC[C@H](N)c3ccccc3)cc21` [GSK-943949A], for which the AC50 entry in test [1] is “Phenotype: Inactive; Curve_Description: None”; in test [2] (read-out: AC50), 29.1 µM.
`CCn1c(-c2nonc2N)nc2c(C#CC(C)(C)O)nc(OCCNC)cc21.Cl` [GSK-949675A]: the concentration at half-maximal activity (AC50) entry is “Phenotype: Inactive; Curve_Description: None” in test [1] and 20.6 µM in test [2] (read-out: AC50).
In the case of `NS(=O)(=O)c1ccc(-c2cc3ccncc3cc2OCc2ccccc2)cc1` [GSK-953913A], the AC50 result in test [1] was “Phenotype: Inactive; Curve_Description: None”; in test [2] (read-out: AC50), 5.8 µM.
`Fc1cccc(COc2ccc(Nc3ncnc4sc(-c5ccco5)cc34)cc2Cl)c1` [GSK-969786A]: the AC50 entry in test [1] and in test [2] was “Phenotype: Inactive; Curve_Description: None” throughout.
With `C[C@@H](Oc1cc(-n2cnc3ccc(OC[C@@H](O)CO)cc32)sc1C(N)=O)c1ccccc1Cl` [GSK-978744A], the AC50 entry in test [1] and in test [2] was “Phenotype: Inactive; Curve_Description: None” in each case.
Take `NS(=O)(=O)c1cccc(-c2cc3ccncc3cc2OCc2ccccc2)c1` [GSK-980961A]: the AC50 entry was “Phenotype: Inactive; Curve_Description: None” in test [1] and 25.9 µM in test [2] (read-out: AC50).
`CCCN1CCC=C(c2ccc(Nc3nc(Nc4ccccc4C(N)=O)c4cc[nH]c4n3)c(C)c2)C1` [GSK-994854A]: the AC50 result in test [1] was “Phenotype: Inactive; Curve_Description: None”; in test [2] (read-out: AC50), 46.1 µM.
Regarding `CCn1c(-c2nonc2N)nc2c(C#CC(C)(C)O)nc(CN3CCCC3)cc21` [GSK-1000163A], the AC50 entry in test [1] and in test [2] was “Phenotype: Inactive; Curve_Description: None” each time.
Consider `CCn1c(-c2nonc2N)nc2c(C#CC(C)(C)O)nc(O[C@@H](CN)c3ccccc3)cc21.O=C(O)C(F)(F)F` [GSK-1007102B], for which the AC50 entry in test [1] was “Phenotype: Inactive; Curve_Description: None”; in test [2] (read-out: AC50) it was 29.1 µM.
`NC(=O)c1sc(-n2cnc3ccccc32)cc1OCc1ccccc1Br` [GSK-1023156A]: the AC50 entry in test [1] is “Phenotype: Inactive; Curve_Description: None”; in test [2] (read-out: AC50), 25.9 µM.
With `COC(=O)c1sc(-n2cnc3cc(OC)c(OC)cc32)cc1OCc1ccccc1C(F)(F)F` [GSK-1030058A], the concentration at half-maximal activity (AC50) result in test [1] and in test [2] was “Phenotype: Inactive; Curve_Description: None” in each case.
As for `COc1cc2ncn(-c3cc(OCc4ccccc4C(F)(F)F)c(C(C)=O)s3)c2cc1OC` [GSK-1030059A], the AC50 entry in test [1] and in test [2] was “Phenotype: Inactive; Curve_Description: None” in each case.
For the compound `CNC(=O)c1sc(-n2cnc3cc(OC)c(OC)cc32)cc1OCc1ccccc1C(F)(F)F` [GSK-1030061A], the AC50 result in test [1] and in test [2] was “Phenotype: Inactive; Curve_Description: None” throughout.
For the compound `COc1cc2ncn(-c3cc(OCc4ccccc4C(F)(F)F)c(C(=O)N(C)C)s3)c2cc1OC` [GSK-1030062A], the figures for the AC50 entry in test [1] and in test [2] (read-out: AC50) were “Phenotype: Inactive; Curve_Description: None” and 23.1 µM, respectively.
`CCCN1CCCC(c2ccc(Nc3nc(Nc4cc(F)ccc4C(N)=O)c4cc[nH]c4n3)c(OC)c2)C1` (configuration not stated) [GSK-1173862A]: the AC50 result in test [1] is “Phenotype: Inactive; Curve_Description: None”; in test [2] (read-out: AC50), 32.6 µM.
For `COc1cc(N2CCN(C(C)C)CC2)ccc1Nc1nc(Nc2ccc(F)cc2C(N)=O)c2cc[nH]c2n1` [GSK-1220512A], the AC50 in test [1] (read-out: AC50) is 25.9 µM; in test [2] (read-out: AC50), 20.6 µM.
For the compound `CCCN1CCC(c2ccc(Nc3nc(Nc4cc(F)ccc4C(N)=O)c4cc[nH]c4n3)c(OC)c2)CC1` [GSK-1326255A], the AC50 result in test [1] is “Phenotype: Inactive; Curve_Description: None”; in test [2] (read-out: AC50), 18.3 µM.
With `COc1cc(N2CCN(C(C)C)CC2)ccc1Nc1nc(Nc2ccc(F)cc2C(=O)NC[C@@H](O)CO)c2cc[nH]c2n1` [GSK-1392956A], the AC50 result in test [1] and in test [2] was “Phenotype: Inactive; Curve_Description: None” in each case.
